No end group written: not given here.
What was measured:
Y2 receptor = biological target: T1, Y2 receptor (Mus musculus, UniProt P97295); assay: Y2R antagonist study: oral spray of BIIE0246/PYY3-36 mixture, 2 hr FI after 24 hr fast; assay type: in vivo
T1 construct: from tissue; host or cells: live mice; oral mucosa / tongue epithelium
T1 sequence (P97295 1-381): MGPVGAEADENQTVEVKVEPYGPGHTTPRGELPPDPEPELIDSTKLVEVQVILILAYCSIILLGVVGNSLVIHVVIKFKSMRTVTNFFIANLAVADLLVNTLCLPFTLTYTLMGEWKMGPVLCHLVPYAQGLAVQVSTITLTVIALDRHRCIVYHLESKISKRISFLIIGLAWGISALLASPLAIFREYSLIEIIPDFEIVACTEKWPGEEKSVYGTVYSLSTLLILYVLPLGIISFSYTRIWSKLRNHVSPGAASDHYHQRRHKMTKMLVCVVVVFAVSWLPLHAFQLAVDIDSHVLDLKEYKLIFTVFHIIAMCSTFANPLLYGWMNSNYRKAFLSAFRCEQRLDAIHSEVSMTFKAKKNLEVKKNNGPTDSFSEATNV
Description: Direct proof of PYY3-36/Y2R interaction was obtained by utilizing a selective Y2 receptor antagonist BIIE0246 [26]. The antagonist and PYY3-36 agonist (12 mg/100 g BW) were mixed at the 50∶1 molar ratio, respectively, and the mixture was used to treat fasted mice as described above (Fig. 6H).
(§1) One ml total volume sterile vials were obtained from Sephora. Murine PYY3-36 (Bachem) was diluted in sterile H2O. All 8–10 weeks old mice were individually housed. Mice were conditioned to the oral spray with vehicle after 24 hours fast on three separate occasions. Groups were randomized by FI and BW. […] The applied dose was estimated using calculated average volume ([…]) delivered per puff. Food was provided 10 min after the spray was applied and the amount consumed was measured at either 1 hr after the treatment, or at several time points (1, 2, 4, 6, 12, 18, and 24 hours). Taking into account the nocturnal feeding pattern, the experiment was conducted during the night with the first measurement taken at 2000 hrs. Each experiment was done at least 3 times in a crossover manner with 8 mice per group. For the Y2R antagonist study, BIIE0246 compound (Tocris Bioscience, Ellisville, MO) was dissolved in 100% EtOH (0.2 mM) and the stock solution was mixed with PYY3-36 aqueous solution at the 50∶1 molar ratio (BIIE0246/PYY3-36) with the final concentration of 2% EtOH in the mixture. […]

C57Bl/6J mice = assay: Oral spray acute augmentation: food intake after 24 hours fasting; assay type: in vivo, mouse
Description: Figure 6 Oral PYY3-36 augmentation therapy. […] (B) Dose-response effect of PYY3-36 on 2 hr FI vs. control (n = 8 each group). (C) Effect of PYY3-36 oral spray on FI in C57Bl/6J mice measured at 1, 2, 6, 12, 18, and 24 hr post treatment (n = 8/group). (D) Effect of PYY3-36 oral spray on FI in PYY^-/- mice measured at 1, 2, 6, 12, 18, and 24 hr post treatment (n = 8/group). (E) Average 24-hr FI in DIO mice treated with daily PYY3-36 OS (18 mg/100 g). (F) Effect of daily PYY3-36 OS (18 mg/100 g) treatment on BW change in DIO C57Bl/6J mice (n = 9 per each group). (G) Concentration of PYY3-36 in plasma of PYY KO mice 10 min after PYY3-36 (18 mg/100 g BW), or control oral spray vs. PYY3-36 injected i.p. (6 mg/100 g BW) (n = 10 per group).
One ml total volume sterile vials were obtained from Sephora. Murine PYY3-36 (Bachem) was diluted in sterile H2O. All 8–10 weeks old mice were individually housed. Mice were conditioned to the oral spray with vehicle after 24 hours fast on three separate occasions. Groups were randomized by FI and BW. […] The applied dose was estimated using calculated average volume ([…]) delivered per puff. Food was provided 10 min after the spray was applied and the amount consumed was measured at either 1 hr after the treatment, or at several time points (1, 2, 4, 6, 12, 18, and 24 hours). Taking into account the nocturnal feeding pattern, the experiment was conducted during the night with the first measurement taken at 2000 hrs. Each experiment was done at least 3 times in a crossover manner with 8 mice per group. For the Y2R antagonist study, BIIE0246 compound (Tocris Bioscience, Ellisville, MO) was dissolved in 100% EtOH (0.2 mM) and the stock solution was mixed with PYY3-36 aqueous solution at the 50∶1 molar ratio (BIIE0246/PYY3-36) with the final concentration of 2% EtOH in the mixture. Prior to this experiment, mice were conditioned to 2% EtOH spray on three separate occasions. Wherever practical, the behavioral experiments were conducted in a blind fashion with the personnel uninformed about the treatment regimen.

rodents = details: i.p., ref [16]; cited from earlier work
[1] = PYY3-36 in saliva after i.p. injection (RIA); assay type: in vivo, mouse; details: male C57Bl/6J mice, 10 min post injection, n = 10 per group
Description: Some proteins enter saliva from salivary glands where they are expressed and secreted in an exocrine fashion via zymogen granules. Other peptides can enter saliva as a transudate from serum. To establish the source of salivary PYY3-36 we asked whether peptide circulating in a bloodstream can be transported into saliva. To this end, mice were injected intraperitoneally (i.p.) with increasing doses of murine synthetic PYY3-36 (Fig. 1F).
Salivation was stimulated as described earlier. Whole saliva was collected for 5 min from the oral cavity into Eppendorf tubes containing 5000 U Kallikrein inhibitor (Biomedicals) and 50 mM DPP-IV inhibitor (Linco Research). Saliva samples were frozen at −80°C until analyzed.
PYY3-36 from saliva and plasma was measured by PYY3-36 RIA kit (Phoenix Pharmaceuticals). The identification of PYY3-36 from human saliva was performed by reverse-phase high performance liquid chromatography (RP-HPLC) followed by Matrix-Assisted Laser Desorption Ionization – Time of Flight (MALDI-TOF) mass spectrometry (MS). PYY3-36 synthetic peptide (Bachem) was used for calibration of all purification steps. Briefly, saliva was pre-purified using a Sep-Pak C18 cartridge (Waters) followed by purification on RP-HPLC uBondapak C18 column (Waters) as described. […]

DIO C57Bl/6J mice = assay: Repeated once-a-day oral spray in DIO mice fed high fat diet ad libitum (FI and BW); assay type: in vivo, mouse; details: daily oral spray 18 mg/100 g, n = 9 per group
Description: Figure 6 Oral PYY3-36 augmentation therapy. […] Experiments for each peptide were conducted separately and the results were integrated in one graph as fractions of average amount of FI consumed by the control group. […] (B) Dose-response effect of PYY3-36 on 2 hr FI vs. control (n = 8 each group). (C) Effect of PYY3-36 oral spray on FI in C57Bl/6J mice measured at 1, 2, 6, 12, 18, and 24 hr post treatment (n = 8/group). (D) Effect of PYY3-36 oral spray on FI in PYY^-/- mice measured at 1, 2, 6, 12, 18, and 24 hr post treatment (n = 8/group). (E) Average 24-hr FI in DIO mice treated with daily PYY3-36 OS (18 mg/100 g). (F) Effect of daily PYY3-36 OS (18 mg/100 g) treatment on BW change in DIO C57Bl/6J mice (n = 9 per each group). (G) Concentration of PYY3-36 in plasma of PYY KO mice 10 min after PYY3-36 (18 mg/100 g BW), or control oral spray vs. PYY3-36 injected i.p. (6 mg/100 g BW) (n = 10 per group). (H) Effect of Y2R specific antagonist BIIE0246 on anorexigenic action of PYY3-36 (n = 8 per each group) measured as 2 hr FI after 24 hr fast.*P<0.05, **P<0.01.
Because of the sustained 24-hr effect, we tested whether repeated once-a-day treatment would also affect the FI and BW accumulation over extended period of time when animals were fed high fat (HF) diet ad libitum.

[2] = Concentration of PYY3-36 in plasma after oral spray or i.p. injection (RIA); assay type: in vivo, mouse; details: PYY KO mice, n = 10 per group
Description: To exclude potential interference with circulating background PYY in the plasma, we used PYY KO mice.
Blood was collected from facial vein puncture into EDTA-coated tubes (Capiject) containing protease inhibitors as described for saliva collection. Plasma samples were frozen at −80°C until analyzed.
PYY3-36 from saliva and plasma was measured by PYY3-36 RIA kit (Phoenix Pharmaceuticals). The identification of PYY3-36 from human saliva was performed by reverse-phase high performance liquid chromatography (RP-HPLC) followed by Matrix-Assisted Laser Desorption Ionization – Time of Flight (MALDI-TOF) mass spectrometry (MS). PYY3-36 synthetic peptide (Bachem) was used for calibration of all purification steps. Briefly, saliva was pre-purified using a Sep-Pak C18 cartridge (Waters) followed by purification on RP-HPLC uBondapak C18 column (Waters) as described. The PYY3-36-containing fraction was collected, air dried and reconstituted in 0.1% formic acid in 50% acetonitrile/water prior to analysis with MALDI-TOF as described, [40].

PYY KO mice = assay: Oral spray satiation study, FI over 24 hours after single treatment, PYY KO mice; assay type: in vivo, mouse; details: n = 8/group
Description: To investigate the duration of action of orally applied PYY3-36 we conducted standard satiation studies in C57Bl/6J as well as in PYY KO mice measuring FI over 24 hours after single treatment.
as §1, with “mixture. Prior to this experiment, mice were conditioned to 2% EtOH spray on three separate occasions.” for “mixture.”

N=C(N)NCCC[C@H](NC(=O)CC1(CC(=O)N2CCN(C3c4ccccc4NC(=O)c4ccccc43)CC2)CCCC1)C(=O)NCCn1c(=O)n(-c2ccccc2)n(-c2ccccc2)c1=O (stereo partly shown) [BIIE0246]
effect of antagonist alone on 2 hr FI (Y2 receptor; BIIE0246 alone, data not shown): no effect on 2 hr FI
effect of antagonist on the anorexigenic action of PYY3-36, 2 hr FI (Y2 receptor; BIIE0246 mixed with PYY3-36 (12 mg/100 g BW) at 50:1 molar ratio, 2% EtOH, after 24 hr fast, n = 8 per group): completely ablated the anorexigenic effect of PYY3-36

Peptide YY3-36 [PYY3-36]
duration of anorexigenic response, FI over 24 hours after single treatment (C57Bl/6J mice; C57Bl/6J mice, oral spray, high dose 12 mg/100 g BW, n = 8/group): significant until the next treatment 24 hrs later
response of FI over 24 hours to the low dose (C57Bl/6J mice; C57Bl/6J mice, oral spray, low dose 3 mg/100 g BW, n = 8/group): only PYY KO mice responded
one hour FI as % of control values at the maximum applied dose (C57Bl/6J mice; oral spray, dose-response, 12 mg/100 g, after 24 hr fast, n = 8 each group (legend Fig. 6B says 2 hr FI)): 81%
food consumed less than the control group, 1 hour FI (C57Bl/6J mice; oral spray, single puff, 3 mg/100 g BW, after 24 hours of fasting, food given 10 min after spray, average, n = 10 per group, C57Bl/6J mice): 12.3%
FI after intraperitoneal injection (rodents): dose-dependent reduction in FI
PYY3-36 in saliva after i.p. injection of increasing doses [1]: significant relationship between the injected dose and the concentration of the peptide detected in saliva
BW accumulation (DIO C57Bl/6J mice; DIO C57Bl/6J mice, HF diet ad libitum): retarded BW accumulation which became significantly on day 17th
average 24-hr FI of HF food (DIO C57Bl/6J mice; DIO mice): significantly less HF food
PYY3-36 in plasma 10 min after i.p. injection ([2]; i.p. 6 mg/100g BW): significant increase in PYY3-36 found in plasma
PYY3-36 in plasma 10 min after oral spray ([2]; oral spray 18 mg/100 g BW): no detectable PYY3-36 in the plasma
response of FI over 24 hours to the low dose (PYY KO mice; PYY KO mice, low dose 3 mg/100 g BW): responded to the treatment in significant manner observed after 18 and 24 hrs post experiment
duration of anorexigenic response, FI over 24 hours after single treatment (PYY KO mice; PYY-/- mice, high dose 12 mg/100 g BW): significant until the next treatment 24 hrs later

amylin (KCNTATCATQRLANFLVRSSNNLGPVLPPTNVGSNTY; ends and bridges not checked; cysteine pairing not given here; UniProt P12968 38-74, looked up) [endocrine peptide tested by oral spray application]
effect of oral spray application on FI (C57Bl/6J mice; oral spray, similar approach, data not shown): no change of FI

glucagon-like peptide-1 (HAEGTFTSDVSSYLEGQAAKEFIAWLVKGR; ends and bridges not checked; UniProt P55095 98-127, looked up) [GLP-1]
effect of oral spray on 1 hour FI (satiation) vs control oral spray (C57Bl/6J mice; oral spray after 24 hours fasting, GLP-1 3 mg/100 g BW, Exendin-4 10 mg/100 g BW, n = 10 each group): induced stronger satiation
